Laboratory results taken from PubChem BioAssay AID2423 (Broad Institute, 2010).
Results filed as inconclusive are left out. Calls of active or inactive are those of the source. How the calls were made is not given here.

Tested on: C. albicans CaCi-8 + fluconazole, Alamar Blue growth, 48 h
Assay: resistant C. albicans growth inhibition with fluconazole, dose response, CaCi-8 strain, Alamar Blue fluorescence (AID 2423)

| SMILES | EC50 |
| --- | --- |
| O=C(COS(=O)c1ccccc1)Nc1cc(Cl)ccc1N1CCOCC1 (stereo not given) | 3110 nM |
| COc1ccc(C2=NN(c3nc4ccccc4s3)C(=O)C2)cc1 | 5660 nM |
| Cc1ccc(NC(=O)c2noc(C(C)C)c2[N+](=O)[O-])cc1 | 3200 nM |
| CCc1nnc(NC(=O)CSc2ncc(-c3ccccc3)n2C)s1 | 1640 nM |
| CCOc1cccc(-c2c(C(=O)N/N=C(\C)c3ccccn3)nnn2-c2nonc2N)c1 | 15600 nM |
| Cc1cccc(N2CCc3c2nc2ccc(Br)cc2c3N)c1 | 1610 nM |
| O=C(NNC(=O)c1cc(-c2ccncc2)nc2ccccc12)c1ccccc1O | 2290 nM |
| COc1ccc(NC(=O)c2ccc([N+](=O)[O-])o2)cc1 | 1340 nM |
| Oc1ccc(/C=N/N(c2ccccc2)c2ccccc2)c(O)c1O | 10800 nM |
| Cc1ccc(NCc2ccc(O)c3ncccc23)cc1 | 16000 nM |
| Cc1ccc(C(=O)Cn2cccn2)cc1 | 12700 nM |
| O=C(/C=C1\NC2(CCCC2)Cc2ccccc21)C(=O)N/N=C/c1ccccc1O | 601 nM |
| O=C(CSc1ccc(Cl)cc1)Nc1nnc(-c2ccco2)o1 | 2720 nM |
| O=C(Nc1nc(=O)c2ccccc2s1)c1ccc(Cl)cc1 | > 15000 nM (inactive) |
| CCCCCc1ccc(OCCCC[n+]2ccccc2)c(CCCCC)c1 | > 16000 nM (inactive) |
| CCC(=O)N1c2ccc(S(=O)(=O)CCC(=O)N3CCn4c3nc3ccccc34)cc2CC1C (stereo not given) | 1120 nM |
| O=C(NC(Nc1nc2ccc([N+](=O)[O-])cc2s1)(C(F)(F)F)C(F)(F)F)c1ccccc1Cl | 1040 nM |
| COc1ccc(C(=O)NC(=S)NNC(=O)c2ccc(C)cc2)cc1 | 2410 nM |
| Cc1cccc(NC(=O)NNC(=O)c2cc3ccccc3cc2O)c1C | > 15000 nM (inactive) |
| CCOc1ccc2nc(N=NC3=C(O)CC(C)(C)CC3=O)sc2c1 | > 16000 nM (inactive) |
| CCN1/C(=C/c2cccc[n+]2C)Sc2ccc(OC)cc21 | 10700 nM |
| COc1ccc(NC(=O)NNC(=O)c2cc3ccccc3cc2O)cc1 | > 16000 nM (inactive) |
| COc1cccc(CN2C(=O)C3(C(C#N)=C(N)OC4=C3C(=O)CCC4)c3ccccc32)c1 (stereo not given) | 2150 nM |
| NC(=O)CC12CC3CC(C1)CC(CC(N)=O)(C3)C2 | > 16000 nM (inactive) |
| Cc1ccc([N+](=O)[O-])cc1-c1[nH]c(-c2ccc(O)c(O)c2)nc1-c1ccccc1 | > 15000 nM (inactive) |
| COc1ccnc(N2CCN(c3ccccc3)CC2)c1C#N | 859 nM |
| CC(=O)N(Cc1ccc(F)cc1)C1=C(NCc2ccccc2)C(=O)c2ccccc2C1=O | 596 nM |

| SMILES | EC50 |
| --- | --- |
| Cc1nn2c([nH]c(=O)c3ccccc32)c1C=O | 961 nM |
| COc1cnc(-c2ccccn2)nc1Sc1ccccc1Cl | > 15000 nM (inactive) |
| CC[C@@H]1C=CC=CC[C@H](C)[C@@H](O)[C@@H](C)C(=O)[C@H](C)[C@@H](O)[C@H](C)C(=O)[C@H](C)[C@@H](O)[C@H](C)C=CC(=O)O[C@H]2[C@@H](C)[C@@H](CC1)O[C@@]1(CC[C@@H](C)[C@@H](C[C@H](C)O)O1)[C@@H]2C | 654 nM |
| CCN(CC)c1ccc(/C=N/NC(=O)c2ccc3nc[nH]c3c2)c(O)c1 | 1160 nM |
| CC(C)NC(=S)N/N=C/c1ccc(C(C)(C)C)cc1 | > 16000 nM (inactive) |
| COCC(=O)Nc1nc2n(n1)C(c1ccccc1Cl)CC(c1ccc(OC)cc1)N2 (stereo not given) | > 16000 nM (inactive) |
| O=C1CS/C(=N\C(=O)N2c3ccccc3Sc3ccccc32)N1 | 1090 nM |
| CCOC(=O)c1cc2c(=O)n3ccccc3nc2n(CCOC)c1=NC(=O)c1ccncc1 | > 15000 nM (inactive) |
| O=C(Nc1nnc(-c2ccccn2)o1)c1ccc(Br)cc1 | > 15000 nM (inactive) |
| O=C(NNc1nc2ccc(Cl)cc2s1)c1cc(-c2cccs2)nc2ccccc12 | 400 nM |
| CN1CCN(C(=O)c2cnn(-c3ccccc3)c2NC(=O)c2ccccc2)CC1 | > 15000 nM (inactive) |
| N#CC1CC(c2ccccc2)=NN1c1ccccc1[N+](=O)[O-] (stereo not given) | 404 nM |
| O=[N+]([O-])c1ccc2c(c1)[nH]c(=S)n2-c1ccccc1 | 648 nM |
| CS/C(=C\[N+](=O)[O-])Nc1ccc(Cl)cc1 | 4020 nM |
| Cc1cccc(N=Nc2c(C)[nH]n(C(N)=S)c2=O)c1C | 944 nM |
| CC(C)CCOC(=O)C[N+](C)(C)CCOC1CC2CCC1(C)C2(C)C (stereo not given) | 3050 nM |
| COCc1cc(CN2CCN(C)CC2)c(O)c2ncccc12 | 6660 nM |
| Cc1ccc(C(=O)O/N=C/c2c(N3CCOCC3)n(C)c3ccccc23)cc1 | 623 nM |
| Cc1ccc(C(=O)N/N=C/c2c(O)ccc3ccccc23)cn1 | 947 nM |
| O=c1c2cc(Br)ccc2nc(-c2cccc(C(F)(F)F)c2)n1O | 1040 nM |
| Cc1ccc(S(=O)(=O)c2c(C)nn(C(C)(C)C)c2OC(=O)c2ccc(Br)o2)cc1 | > 16000 nM (inactive) |
| CCSc1ccc2cc(OC)ccc2[n+]1CC | 4710 nM |
| O=C(CNS(=O)(=O)c1ccc(Br)s1)NCC1COc2ccccc2O1 (stereo not given) | > 15000 nM (inactive) |
| CCN(CC)c1ccc2nc3ccccc3[n+](CC)c2c1 | 842 nM |
| COc1ccc(N(CC(=O)Nc2ccccc2C(N)=O)S(=O)(=O)c2ccc(C)c([N+](=O)[O-])c2)cc1 | 319 nM |
| Nc1ncnc2c1ncn2[C@@H]1O[C@H](CO)C[C@H]1O | > 15000 nM (inactive) |
| CCOc1ccc(-n2c(C)cc(C(=O)CCl)c2C)cc1 | 5790 nM |

| SMILES | EC50 |
| --- | --- |
| C=CCn1c(O)c(N=NC(=S)Nc2ccc(OC)cc2)c2ccccc21 | 7700 nM |
| CN(C)c1ccc(/C=C/C=C/c2sc3ccccc3[n+]2C)cc1 | 1740 nM |
| COc1cccc(/C=N/NC(=O)c2[nH]nc3c2CCc2ccccc2-3)c1O | 857 nM |
| O=C(O)c1ccc(-c2nc(-c3ccc(Cl)c(Cl)c3)cs2)cc1 | 4160 nM |
| N=C1/C(=C/c2cccn2-c2ccc([N+](=O)[O-])cc2)C(=O)N=C2SC=CN12 | > 16000 nM (inactive) |
| CCN(CC)c1nc(N)c2c(N)nc3c(c2c1C#N)CC(c1ccccc1)O3 (stereo not given) | > 16000 nM (inactive) |
| CCOC(=O)Cc1csc(NC(=O)CSc2nnc(-c3ccc(NS(=O)(=O)CC)cc3)o2)n1 | 150 nM |
| CCN(CC)c1ccc(/C=N/NC(=O)CNC(=O)C2COc3ccccc3O2)c(O)c1 (stereo not given) | 1110 nM |
| CCOC(=O)Cc1csc(NC(=O)c2ccc3ncsc3c2)n1 | 6820 nM |
| COc1ccc(/C=N/NC(=O)c2cc(O)c(O)c(O)c2)cc1Cn1cc([N+](=O)[O-])cn1 | 1440 nM |
| C/C(=N\NC(=O)CCC(=O)Nc1ccc(C)c(C)c1)C1CC1 | > 15000 nM (inactive) |
| CCCNC(=O)c1ccc2c(=O)c(O)c(-c3ccc(Cl)c([N+](=O)[O-])c3)[nH]c2c1 | 1920 nM |
| Nc1nonc1C(=O)N/N=C/c1cc(Br)ccc1O | 9340 nM |
| COc1ccccc1OCC(=O)N/N=C/C=C/c1ccc([N+](=O)[O-])o1 | 1220 nM |
| O=C(Cc1cccs1)Nc1cccc(-c2nc3ccccc3[nH]2)c1 | 798 nM |
| O=C(CSCc1cccc(CSCC(=O)Nc2ccccc2)n1)Nc1ccccc1 | > 15000 nM (inactive) |
| COc1ccc(-n2c(-c3cccc(C)c3[N+](=O)[O-])n[nH]c2=S)cc1 | 316 nM |
| O=C(N/N=C/c1ccc(O)c(O)c1O)/C(=C/c1ccc([N+](=O)[O-])cc1)NC(=O)c1ccccc1 | 807 nM |
| CCCCCc1ccc(OCCCC[n+]2ccc(C)cc2)c(CCCCC)c1 | > 16000 nM (inactive) |
| CCC(=O)NC(c1cccs1)c1ccc2cccnc2c1O (stereo not given) | 1510 nM |
| COc1ccc(/C=C/C(=O)N(c2ccccn2)C2CCCCC2)cc1OC | 7990 nM |
| CN(C)C(=O)c1cn(-c2ccccc2)nc1-c1cccs1 | > 16000 nM (inactive) |
| CNC(=O)c1ccc2c(c1)nnn2C | > 15000 nM (inactive) |
| COCCCN1C(=O)C(=O)/C(=C(/O)c2ccc(OCC(C)C)cc2C)C1c1cccnc1 (stereo not given) | > 15000 nM (inactive) |
| CC(C)(C)c1ccc(C(=O)NC(=S)NNC(=O)COc2ccccc2)cc1 | 2110 nM |
| COc1ccc(-c2nnc(NC(=O)c3ccc(S(=O)(=O)N4CCCc5ccccc54)cc3)o2)cc1 | 193 nM |
| COc1ccc(C(=O)NN/C(C)=C/C(=O)C(F)(F)C(F)(F)C(F)(F)F)cc1 | 5050 nM |

| SMILES | EC50 |
| --- | --- |
| O=C(Cn1c2ccc(F)cc2c2nc3n(c(=O)c21)CCS3)N1CCCC1 | > 16000 nM (inactive) |
| COc1ccc(-[n+]2c(-c3ccccc3)cc(-c3ccccc3)cc2-c2ccccc2)cc1 | > 15000 nM (inactive) |
| Oc1[nH]c2ccc(Br)cc2c1N=NC(=S)N1CCOCC1 | 3100 nM |
| Nc1n[nH]c(-c2cccc([N+](=O)[O-])c2)n1 | > 15000 nM (inactive) |
| CCCCN(CCCC)S(=O)(=O)c1ccc(C(=O)Nc2nnc(COC)o2)cc1 | > 15000 nM (inactive) |
| OCCCNc1cc(-c2ccnc(Nc3cccc(Cl)c3)n2)ccn1 | 939 nM |
| O=C(/C=C/c1cccs1)NC(=S)NNC(=O)c1ccccc1O | 8540 nM |
| CCCCNC(=O)/C(=C\c1ccc([N+](=O)[O-])o1)NC(=O)c1ccccc1 | > 15000 nM (inactive) |
| CCCCCCCCC(=O)NNC(=O)c1c(O)c2ccccc2n(CC)c1=O | 1910 nM |
| C/C(CC(=O)Nc1cc(C)ccn1)=N\NC(=O)c1cccc(C)c1O | > 16000 nM (inactive) |
| Cc1cccc(N2CCN(c3nc(C)cc(C)c3C#N)CC2C)c1 (stereo not given) | > 16000 nM (inactive) |
| O=C(Oc1c(Cl)cc(Cl)c2cccnc12)c1cccs1 | 443 nM |
| Cc1nnc(N/N=C/c2ccccn2)[nH]c1=O | 2250 nM |
| CCC(=O)NC(c1cccs1)c1cc(Cl)c2cccnc2c1O (stereo not given) | 372 nM |
| O=C(Nc1nc(-c2ccccn2)cs1)c1cc2ccccc2o1 | 903 nM |
| CN(C)S(=O)(=O)Oc1cccc(C(=O)Nc2ccc(Cl)cc2)c1 | 2970 nM |
| O=Nc1c(-c2cccc([N+](=O)[O-])c2)nc2ncccn12 | 828 nM |
| CC(C)[C@H]1C(=O)O[C@H](C(C)C)C(=O)N(C)[C@@H](C(C)C)C(=O)O[C@H](C(C)C)C(=O)N(C)[C@@H](C(C)C)C(=O)O[C@H](C(C)C)C(=O)N1C | > 15000 nM (inactive) |
| O=C(NNC(=O)c1cc2ccccc2cc1O)Nc1ccccc1F | > 16000 nM (inactive) |
| CCN(CC)c1ccc(N=Cc2ccc(N(CC)CC)cc2O)cc1 | 11100 nM |
| CCN(CC)S(=O)(=O)c1cc(OC)ccc1N=Nc1ccc(O)c2ncccc12 | 1560 nM |
| COc1cccc(/C=N/Nc2cc(C)nc(-c3ccccc3O)n2)c1O | < 120 nM |
| O=C(NNC(=O)c1cc2ccccc2cc1O)NC1CCCCC1 | 13600 nM |
| Cc1ccc(NS(=O)(=O)c2ccc(CCC(=O)NCCO)cc2)cc1 | > 15000 nM (inactive) |
